Where two headings read alike, the source gives them in different places.
What was measured:
Corn [1] = assay: Greenhouse test, combination of Procedures II and III: insecticide in-furrow or in cover layer, herbicide and antidote incorporated in cover layer (Examples 1-3, 6; Tables 1-3, 6); type: in vivo; conditions: for % Injury Corn / % Corn Injury PN 3320 / % Corn Injury PN 3377: 3 weeks; for Percent Injury Corn: 7 weeks
[2] = system: velvetleaf (Abutilon theophrasti); assay: Greenhouse test, combination of Procedures II and III (Examples 1, 2; Tables 1, 2); type: in vivo; conditions: for % Injury VELE: 3 weeks; for Percent Injury VELE: 7 weeks
Corn [3] = assay: Greenhouse test Procedure II: herbicide, insecticide and antidote incorporated in cover layer (Example 4; Table 4); type: in vivo; conditions: 3 weeks
Outline: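 Herbicide, insecticide and antidote in acetone were track-sprayed sequentially onto a soil cover layer, incorporated and spread over seeded beds in silt loam. Initial overhead irrigation equal to 0.6 cm rainfall, then sub-irrigation in the greenhouse. Injury was rated 3 weeks after treatment against untreated and herbicide-only controls.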

Corn [4] = assay: Greenhouse test Procedure I with PPI or POE herbicide and foliar insecticide (Example 5; Table 5); type: in vivo
Method: (§1) Containers were filled and compacted with a fumigated silt loam top soil to a depth of about 1.3 cm from the top of the container. A first container was designated as an untreated control, a second container was designated as a herbicide control, and a third container was designated as a herbicide + antidote test container. Each of the containers was seeded with a crop species. A measured amount of herbicide dispersed or dissolved in acetone was applied to a measured quantity of soil. To this same quantity of soil treated with herbicide, there was added a measured amount of antidote dispersed or dissolved in acetone. The quantity of soil treated with the herbicide and antidote was thoroughly mixed to incorporate the herbicide and antidote in the soil uniformly. The seed bed in the third container of soil was covered with the soil treated with the herbicide and antidote and the container was leveled. For each test series, the seed beds of the first and second containers were likewise covered by soil layers. the cover layer of the first container was not treated with herbicide or antidote.
(§2) Insecticide application was made as described in the tests in the examples below. The containers were then placed on a bench in a greenhouse and sub-irrigated as required for the duration of the test.
(§3) Said herbicide and antidote were sequentially pipetted onto cover layers, which were spread over the seed beds and subirrigated as in Procedure I and allowed to grow to a height of about 10 cm over a period of 11 days. Herbicide No. 1 and Insecticide No. 2 were then sequentially sprayed on the plant foliage. Observations were made three (3) weeks after initial treatment, 10 days after foliar treatment).

VELE (velvetleaf) = assay: as above; type: in vivo, Abutilon theophrasti
Method: as §1, §2, §3

Corn [5] = assay: whole plant or invertebrate; conditions: Zea mays, iv, 312 h
[6] = Ex. 2: Insecticide 1 0.11 kg/305m + Herbicide 1 0.14 Kg/Ha
[7] = Ex. 2: Insecticide 1 0.11 kg/305m + Herbicide 1 0.56 Kg/Ha
[8] = Ex. 2: Insecticide 1 0.23 Kg/305m + Herbicide 1 0.14 + Herbicide 2 4.48 Kg/Ha
[9] = Ex. 2: Insecticide 1 0.23 Kg/305m + Herbicide 1 0.14 Kg/Ha
[10] = Ex. 2: Insecticide 1 0.23 Kg/305m + Herbicide 1 0.56 Kg/Ha
[11] = Ex. 2: Insecticide 2 3.36 Kg/Ha + Herbicide 1 0.14 + Herbicide 2 4.48 Kg/Ha
[12] = Ex. 6: Insecticide 1 0.23 Kg/305m + Herbicide 1 0.14 Kg/Ha
[13] = Ex. 6: Insecticide 1 0.23 Kg/305m + Herbicide 1 0.56 Kg/Ha
[14] = Ex. 6: Insecticide 2 0.23 Kg/305m + Herbicide 1 0.14 Kg/Ha
[15] = Ex. 6: Insecticide 2 0.23 Kg/305m + Herbicide 1 0.56 Kg/Ha
[16] = Insecticide 1 0.23 kg/305m + Herbicide 1 0.14 Kg/Ha
[17] = Insecticide 1 0.23 kg/305m + Herbicide 1 0.56 Kg/Ha
[18] = Insecticide 1 0.23 kg/305m + Herbicide 1 2.24 Kg/Ha
[19] = Insecticide 2 3.36 kg/ha + Herbicide 1 0.14 Kg/Ha
[20] = Insecticide 2 3.36 kg/ha + Herbicide 1 0.56 Kg/Ha
[21] = Insecticide 2 3.36 kg/ha + Herbicide 1 2.24 Kg/Ha
[22] = Herbicide 1 0.07 Kg/Ha POE, 10 days after foliar treatment
[23] = Herbicide 1 0.14 Kg/Ha PPI, 3 weeks
[24] = Herbicide 1 0.28 Kg/Ha POE, 10 days after foliar treatment
[25] = Herbicide 1 0.56 Kg/Ha PPI, 3 weeks
[26] = Herbicide 1 1.12 Kg/Ha POE, 10 days after foliar treatment
[27] = Herbicide 1 2.24 Kg/Ha PPI, 3 weeks
[28] = Insecticide 2 1.68 (foliar) + Herbicide 1 0.14 Kg/Ha PPI, 3 weeks
[29] = Insecticide 2 1.68 (foliar) + Herbicide 1 0.56 Kg/Ha PPI, 3 weeks
[30] = Insecticide 2 1.68 (foliar) + Herbicide 1 2.24 Kg/Ha PPI, 3 weeks
[31] = Insecticide 2 1.68 + Herbicide 1 0.07 Kg/Ha POE, 10 days after foliar treatment
[32] = Insecticide 2 1.68 + Herbicide 1 0.28 Kg/Ha POE, 10 days after foliar treatment

Compound: COC(=O)c1c(Cl)nn(C)c1S(=O)(=O)NC(=O)Nc1nc(OC)cc(OC)n1 [Herbicide No. 1, N-[(4,6-dimethoxypyrimidin-2-yl)aminocarbonyl]-3-chloro-4-methoxycarbonyl-5-sulfonamide, reference compound]
- % Injury Corn (Corn [1]; Ex. 2: Herbicide 1 0.14 Kg/Ha): 4%
- % Injury Corn (Corn [1]; Ex. 2: Herbicide 1 0.56 Kg/Ha): 58%
- injury to corn (Corn [1]; Ex. 2: Herbicide No. 1 0.14 kg/ha + Insecticide No. 2, no antidote): 65%
- % Injury Corn (Corn [1]; [6]): 83%
- % Injury Corn (Corn [1]; [7]): 93%
- % Injury Corn (Corn [1]; [8]): 90%
- % Injury Corn (Corn [1]; [9]): 83%
- % Injury Corn (Corn [1]; [10]): 96%
- % Injury Corn (Corn [1]; [11]): 83%
- % Injury Corn (Corn [1]; Ex. 3: Herbicide 1 0.14 Kg/Ha): 10%
- % Injury Corn (Corn [1]; Ex. 3: Herbicide 1 0.56 Kg/Ha): 63%
- % Injury Corn (Corn [1]; Ex. 3: Insecticide 3 (227 g) + Herbicide 1 0.14 + Herbicide 2 4.48 Kg/Ha): 73%
- % Injury Corn (Corn [1]; Ex. 3: Insecticide 3 (227g) + Herbicide 1 0.14 Kg/Ha): 45%
- % Injury Corn (Corn [1]; Ex. 3: Insecticide 3 (227g) + Herbicide 1 0.56 Kg/Ha): 93%
- % Injury Corn (Corn [1]; Ex. 3: Insecticide 4 (227g) + Herbicide 1 0.14 + Herbicide 2 4.48 Kg/Ha): 88%
- % Injury Corn (Corn [1]; Ex. 3: Insecticide 4 (227g) + Herbicide 1 0.14 Kg/Ha): 55%
- % Injury Corn (Corn [1]; Ex. 3: Insecticide 4 (227g) + Herbicide 1 0.56 Kg/Ha): 45%
- % Corn Injury PN 3320 (Corn [1]; Ex. 6: Herbicide 1 0.14 Kg/Ha): 85%
- % Corn Injury PN 3377 (Corn [1]; Ex. 6: Herbicide 1 0.14 Kg/Ha): 12%
- % Corn Injury PN 3320 (Corn [1]; Ex. 6: Herbicide 1 0.56 Kg/Ha): 88%
- % Corn Injury PN 3377 (Corn [1]; Ex. 6: Herbicide 1 0.56 Kg/Ha): 23%
- % Corn Injury PN 3320 (Corn [1]; [12]): 95%
- % Corn Injury PN 3377 (Corn [1]; [12]): 78%
- % Corn Injury PN 3320 (Corn [1]; [13]): 95%
- % Corn Injury PN 3377 (Corn [1]; [13]): 90%
- % Corn Injury PN 3320 (Corn [1]; [14]): 85%
- % Corn Injury PN 3377 (Corn [1]; [14]): 48%
- % Corn Injury PN 3320 (Corn [1]; [15]): 88%
- % Corn Injury PN 3377 (Corn [1]; [15]): 90%
- Percent Injury Corn (Corn [1]; Herbicide 1 0.14 Kg/Ha): 18%
- Percent Injury Corn (Corn [1]; Herbicide 1 0.56 Kg/Ha): 58%
- Percent Injury Corn (Corn [1]; Herbicide 1 2.24 Kg/Ha): 85%
- Percent Injury Corn (Corn [1]; [16]): 85%
- Percent Injury Corn (Corn [1]; [17]): 97%
- Percent Injury Corn (Corn [1]; [18]): 95%
- Percent Injury Corn (Corn [1]; [19]): 60%
- Percent Injury Corn (Corn [1]; [20]): 90%
- Percent Injury Corn (Corn [1]; [21]): 95%
- % Injury VELE ([2]; Ex. 2: Herbicide 1 0.14 Kg/Ha): 89%
- % Injury VELE ([2]; Ex. 2: Herbicide 1 0.56 Kg/Ha): 93%
- % Injury VELE [2, 6]: 93%
- % Injury VELE [2, 7]: 94%
- % Injury VELE [2, 8]: 95%
- % Injury VELE [2, 9]: 83%
- % Injury VELE [2, 10]: 95%
- % Injury VELE [2, 11]: 88%
- Percent Injury VELE ([2]; Herbicide 1 0.14 Kg/Ha): 90%
- Percent Injury VELE ([2]; Herbicide 1 0.56 Kg/Ha): 95%
- Percent Injury VELE ([2]; Herbicide 1 2.24 Kg/Ha): 92%
- Percent Injury VELE [2, 16]: 90%
- Percent Injury VELE [2, 17]: 92%
- Percent Injury VELE [2, 18]: 95%
- Percent Injury VELE [2, 19]: 78%
- Percent Injury VELE [2, 20]: 92%
- Percent Injury VELE [2, 21]: 92%
- % Injury Corn (Corn [3]; Herbicide 1 0.07 kg/Ha): 2%
- % Injury Corn (Corn [3]; Herbicide 1 0.14 kg/Ha): 13%
- % Injury Corn (Corn [3]; Insecticide 2 3.36 + Herbicide 1 0.07 kg/Ha): 0%
- % Injury Corn (Corn [3]; Insecticide 2 3.36 + Herbicide 1 0.14 kg/Ha): 38%
- % Injury Corn (Corn [4]; [22]): 0%
- % Injury Corn (Corn [4]; [23]): 5%
- % Injury Corn (Corn [4]; [24]): 15%
- % Injury Corn (Corn [4]; [25]): 28%
- % Injury Corn (Corn [4]; [26]): 7%
- % Injury Corn (Corn [4]; [27]): 58%
- % Injury Corn (Corn [4]; [28]): 18%
- % Injury Corn (Corn [4]; [29]): 10%
- % Injury Corn (Corn [4]; [30]): 87%
- % Injury Corn (Corn [4]; [31]): 10%
- % Injury Corn (Corn [4]; [32]): 10%
- % Injury VELE (VELE (velvetleaf); [22]): 30%
- % Injury VELE (VELE (velvetleaf); [23]): 78%
- % Injury VELE (VELE (velvetleaf); [24]): 30%
- % Injury VELE (VELE (velvetleaf); [25]): 93%
- % Injury VELE (VELE (velvetleaf); [26]): 20%
- % Injury VELE (VELE (velvetleaf); [27]): 95%
- % Injury VELE (VELE (velvetleaf); [28]): 90%
- % Injury VELE (VELE (velvetleaf); [29]): 90%
- % Injury VELE (VELE (velvetleaf); [30]): 98%
- % Injury VELE (VELE (velvetleaf); [31]): 23%
- % Injury VELE (VELE (velvetleaf); [32]): 42%
- inhibition at 140 g/ha (Corn [5]; read-out: % Inhibition Corn, Herb. No. 1 0.14 kg/Ha alone, PPI, 13 days after planting): 10%
- inhibition at 140 g/ha (Corn [5]; read-out: % Inhibition Corn, Table 51, Herbicide No. 1 0.14 Kg/Ha, where applied Biocide No. 8 8.96 kg/Ha and antidote 4.48 Kg/Ha, all PPI, observed 13 days after treatment): 0%
- inhibition at 140 g/ha (Corn [5]; read-out: % Inhibition Corn, Table 52, Herbicide No. 1 0.14 Kg/Ha, where applied Biocide No. 5 8.96 kg/Ha and antidote 4.48 Kg/Ha, all PPI, observed 13 days after treatment): 0%

From EP0565593B1, “REDUCING PESTICIDAL INTERACTIONS IN CROPS” (priority 1990, dated 1992)
